In patent US20080279907A1, “Antimicrobial medical devices and methods for making and using same” (Ash Access Technology, Inc., priority 2007, published 2008):

Key:
[1] = Desorption of parabens from paraben impregnated polycarbonate catheter pieces in 0.24 M sodium citrate pH 6.2 (HPLC); format: physicochemical
Experimental: One inch polycarbonate catheter pieces including a surface area of about 4.64 cm^2 were impregnated with methyl paraben and propyl paraben. A solution of 100% 1,2-propanediol was prepared with 9% methyl paraben and 2% propyl paraben. Pairs of the one inch catheter pieces were placed into three 25 ml flasks including 10 ml of the 1,2-propanediol and paraben solution. The flasks including the catheter pieces were placed on a shaker at 220 rpm and 27° C. for two, four, or nine hour time periods. At the end of each time period, the catheter pieces were removed, rinsed with distilled water, and dried.
Desorption analysis of the paraben impregnated catheter pieces was performed in 0.24 M sodium citrate with a pH of 6.2. The total amount of either methyl paraben or propyl paraben released from the catheter pieces was calculated using HPLC analysis performed with a Waters Alliance 2690 including a 996 Photodiode Array Detector. Each calculation used a solution of HPLC grade H2O, methanol (MeOH), and acetonitrile (CAN) which were pre-filtered through a Millipore 0.45 μm nylon filter before use. Trifluoracetic acid (TFA) was added to H2O and acetonitrile (ACN) to 0.1%. A Waters Symmetry column (C8 3.9×150 mm, 5 μm) was applied with a Waters guard column (Waters, Sentry Guard column, Nova-Pak C18, 60A, 4 μm 3.9×20 mm).
A gradient of 67% H2O/33% ACN was used for 6.5 min, ramped to 45 %/55% from 6.5 to 7.0 min, and kept at 45%/55% until 15.0 min, at 15.0 min the concentration reverted to 67%/33%, and the system was run until 18 min. Injection volume for each sample was 10 μl and samples and column were run at ambient temperature.
Table 2 includes the graphical data represented in FIG. 8 and associated with the desorption of propyl paraben from the paraben impregnated catheter pieces prepared as discussed above. Again, the samples were impregnated only with parabens and desorbed in 10 ml 0.24 M Na-citrate, pH 6.2 over time.

[2] = Perfusion of parabens and methylene blue through polycarbonate membrane in perfusion chamber (HPLC of lower chamber); format: physicochemical
Experimental: An experiment was performed to determine a method for perfusing methylene blue, methyl paraben, and propyl paraben through a polycarbonate membrane with causing only minimal changes to the strength and elasticity of the membrane. In FIG. 12, there is illustrated a perfusion chamber system 50 used during the experiment. System 50 includes an upper chamber 51 and a lower chamber 52 separated by a polycarbonate membrane 53 having a thickness of 0.60 mm. The upper and lower chambers 51, 52 are generally structured to hold 10.5 cm^3 or 10.5 ml of fluid. The upper chamber 51 was connected to a peristaltic pump (not shown) and the lower chamber 52 was filled with distilled water. First and second solutions, respectively including the parabens and the methylene blue, were prepared in accordance with the method set forth in EXAMPLE 6 above. As best seen in Tables 6 and 7 below, the solutions were connected to the pump and passed through the first chamber 51 at a constant rate at 37° C. over various lengths of time.
Table 6 includes data obtained from HPLC analysis comparing the methyl paraben, propyl paraben, and methylene blue concentrations in the lower chamber 52. The parameters for the methyl and propyl paraben and methylene blue treatments are indicated in the left hand columns.

[3] = lower chamber, 20% PG/80% DI H2O (0.9% MP, 0.2% PP) ~9 hrs at 37 C., then MB ~10 days

## COC(=O)c1ccc(O)cc1 [MP, methyl paraben]
[1]; nearly 3 months, FIGS. 8 and 9
  desorption by the end of the study: negligible desorption
[1]; paraben impregnated catheter pieces, 0.24 M Na-citrate pH 6.2
  period of significant release: 10 days
[1]; treatment 2 hrs (100% PG, 9% MP, 2% PP), time 1 hour
  Total MP released (mg)/1″ catheter: 0.361 mg/1″ catheter
[1]; treatment 2 hrs (100% PG, 9% MP, 2% PP), time 3 hours
  Total MP released (mg)/1″ catheter: 0.577 mg/1″ catheter
[1]; treatment 2 hrs (100% PG, 9% MP, 2% PP), time 7 hours
  Total MP released (mg)/1″ catheter: 0.84 mg/1″ catheter
[1]; treatment 2 hrs (100% PG, 9% MP, 2% PP), time 24 hours
  Total MP released (mg)/1″ catheter: 1.17 mg/1″ catheter
[1]; treatment 2 hrs (100% PG, 9% MP, 2% PP), time 4 days
  Total MP released (mg)/1″ catheter: 1.519 mg/1″ catheter
[1]; treatment 2 hrs (100% PG, 9% MP, 2% PP), time 5 days
  Total MP released (mg)/1″ catheter: 1.685 mg/1″ catheter
[1]; treatment 2 hrs (100% PG, 9% MP, 2% PP), time 6 days
  Total MP released (mg)/1″ catheter: 1.826 mg/1″ catheter
[1]; treatment 2 hrs (100% PG, 9% MP, 2% PP), time 8 days
  Total MP released (mg)/1″ catheter: 2.002 mg/1″ catheter
[1]; treatment 2 hrs (100% PG, 9% MP, 2% PP), time 11 days
  Total MP released (mg)/1″ catheter: 2.129 mg/1″ catheter
[1]; treatment 2 hrs (100% PG, 9% MP, 2% PP), time 13 days
  Total MP released (mg)/1″ catheter: 2.208 mg/1″ catheter
[1]; treatment 2 hrs (100% PG, 9% MP, 2% PP), time 15 days
  Total MP released (mg)/1″ catheter: 2.281 mg/1″ catheter
[1]; treatment 2 hrs (100% PG, 9% MP, 2% PP), time 18 days
  Total MP released (mg)/1″ catheter: 2.325 mg/1″ catheter
[1]; treatment 2 hrs (100% PG, 9% MP, 2% PP), time 22 days
  Total MP released (mg)/1″ catheter: 2.356 mg/1″ catheter
[1]; treatment 2 hrs (100% PG, 9% MP, 2% PP), time 29 days
  Total MP released (mg)/1″ catheter: 2.377 mg/1″ catheter
[1]; treatment 2 hrs (100% PG, 9% MP, 2% PP), time 36 days
  Total MP released (mg)/1″ catheter: 2.392 mg/1″ catheter
[1]; treatment 2 hrs (100% PG, 9% MP, 2% PP), time 50 days
  Total MP released (mg)/1″ catheter: 2.402 mg/1″ catheter
[1]; treatment 2 hrs (100% PG, 9% MP, 2% PP), time 67 days
  Total MP released (mg)/1″ catheter: 2.409 mg/1″ catheter
[1]; treatment 2 hrs (100% PG, 9% MP, 2% PP), time 81 days
  Total MP released (mg)/1″ catheter: 2.413 mg/1″ catheter
[1]; treatment 4 hrs (100% PG, 9% MP, 2% PP), time 1 hour
  Total MP released (mg)/1″ catheter: 0.603 mg/1″ catheter
[1]; treatment 4 hrs (100% PG, 9% MP, 2% PP), time 3 hours
  Total MP released (mg)/1″ catheter: 1.04 mg/1″ catheter
[1]; treatment 4 hrs (100% PG, 9% MP, 2% PP), time 7 hours
  Total MP released (mg)/1″ catheter: 1.472 mg/1″ catheter
[1]; treatment 4 hrs (100% PG, 9% MP, 2% PP), time 24 hours
  Total MP released (mg)/1″ catheter: 2.223 mg/1″ catheter
[1]; treatment 4 hrs (100% PG, 9% MP, 2% PP), time 4 days
  Total MP released (mg)/1″ catheter: 2.774 mg/1″ catheter
[1]; treatment 4 hrs (100% PG, 9% MP, 2% PP), time 5 days
  Total MP released (mg)/1″ catheter: 3.01 mg/1″ catheter
[1]; treatment 4 hrs (100% PG, 9% MP, 2% PP), time 6 days
  Total MP released (mg)/1″ catheter: 3.146 mg/1″ catheter
[1]; treatment 4 hrs (100% PG, 9% MP, 2% PP), time 8 days
  Total MP released (mg)/1″ catheter: 3.324 mg/1″ catheter
[1]; treatment 4 hrs (100% PG, 9% MP, 2% PP), time 11 days
  Total MP released (mg)/1″ catheter: 3.449 mg/1″ catheter
[1]; treatment 4 hrs (100% PG, 9% MP, 2% PP), time 13 days
  Total MP released (mg)/1″ catheter: 3.536 mg/1″ catheter
[1]; treatment 4 hrs (100% PG, 9% MP, 2% PP), time 15 days
  Total MP released (mg)/1″ catheter: 3.597 mg/1″ catheter
[1]; treatment 4 hrs (100% PG, 9% MP, 2% PP), time 18 days
  Total MP released (mg)/1″ catheter: 3.646 mg/1″ catheter
[1]; treatment 4 hrs (100% PG, 9% MP, 2% PP), time 22 days
  Total MP released (mg)/1″ catheter: 3.676 mg/1″ catheter
[1]; treatment 4 hrs (100% PG, 9% MP, 2% PP), time 29 days
  Total MP released (mg)/1″ catheter: 3.701 mg/1″ catheter
[1]; treatment 4 hrs (100% PG, 9% MP, 2% PP), time 36 days
  Total MP released (mg)/1″ catheter: 3.722 mg/1″ catheter
[1]; treatment 4 hrs (100% PG, 9% MP, 2% PP), time 50 days
  Total MP released (mg)/1″ catheter: 3.74 mg/1″ catheter
[1]; treatment 4 hrs (100% PG, 9% MP, 2% PP), time 67 days
  Total MP released (mg)/1″ catheter: 3.749 mg/1″ catheter
[1]; treatment 4 hrs (100% PG, 9% MP, 2% PP), time 81 days
  Total MP released (mg)/1″ catheter: 3.755 mg/1″ catheter
[1]; treatment 9 hrs (100% PG, 9% MP, 2% PP), time 1 hour
  Total MP released (mg)/1″ catheter: 0.67 mg/1″ catheter
[1]; treatment 9 hrs (100% PG, 9% MP, 2% PP), time 3 hours
  Total MP released (mg)/1″ catheter: 1.18 mg/1″ catheter
[1]; treatment 9 hrs (100% PG, 9% MP, 2% PP), time 7 hours
  Total MP released (mg)/1″ catheter: 1.504 mg/1″ catheter
[1]; treatment 9 hrs (100% PG, 9% MP, 2% PP), time 24 hours
  Total MP released (mg)/1″ catheter: 1.993 mg/1″ catheter
[1]; treatment 9 hrs (100% PG, 9% MP, 2% PP), time 4 days
  Total MP released (mg)/1″ catheter: 2.725 mg/1″ catheter
[1]; treatment 9 hrs (100% PG, 9% MP, 2% PP), time 5 days
  Total MP released (mg)/1″ catheter: 3.082 mg/1″ catheter
[1]; treatment 9 hrs (100% PG, 9% MP, 2% PP), time 6 days
  Total MP released (mg)/1″ catheter: 3.27 mg/1″ catheter
[1]; treatment 9 hrs (100% PG, 9% MP, 2% PP), time 8 days
  Total MP released (mg)/1″ catheter: 3.456 mg/1″ catheter
[1]; treatment 9 hrs (100% PG, 9% MP, 2% PP), time 11 days
  Total MP released (mg)/1″ catheter: 3.593 mg/1″ catheter
[1]; treatment 9 hrs (100% PG, 9% MP, 2% PP), time 13 days
  Total MP released (mg)/1″ catheter: 3.676 mg/1″ catheter
[1]; treatment 9 hrs (100% PG, 9% MP, 2% PP), time 15 days
  Total MP released (mg)/1″ catheter: 3.734 mg/1″ catheter
[1]; treatment 9 hrs (100% PG, 9% MP, 2% PP), time 18 days
  Total MP released (mg)/1″ catheter: 3.788 mg/1″ catheter
[1]; treatment 9 hrs (100% PG, 9% MP, 2% PP), time 22 days
  Total MP released (mg)/1″ catheter: 3.832 mg/1″ catheter
[1]; treatment 9 hrs (100% PG, 9% MP, 2% PP), time 29 days
  Total MP released (mg)/1″ catheter: 3.872 mg/1″ catheter
[1]; treatment 9 hrs (100% PG, 9% MP, 2% PP), time 36 days
  Total MP released (mg)/1″ catheter: 3.912 mg/1″ catheter
[1]; treatment 9 hrs (100% PG, 9% MP, 2% PP), time 50 days
  Total MP released (mg)/1″ catheter: 3.944 mg/1″ catheter
[1]; treatment 9 hrs (100% PG, 9% MP, 2% PP), time 67 days
  Total MP released (mg)/1″ catheter: 3.958 mg/1″ catheter
[1]; treatment 9 hrs (100% PG, 9% MP, 2% PP), time 81 days
  Total MP released (mg)/1″ catheter: 3.967 mg/1″ catheter
[2]; 0.60 mm polycarbonate membrane, 37° C.
  time until perfused through the membrane and detected in the lower chamber: within two hours
[2]; lower chamber sample
  ratio MP/PP from this sample: 4.7
[2]; [3]
  MP Conc: 0.047 mg/mL
  Total mg MP in 10.5 mL lower chamber: 0.4935 mg
